# Results reported in publication PMC11855478, “Bicyclic N,S-Acetals Containing Fused Cysteine-Amide System as New Heterocyclic Class Targeting Human Farnesyltransferase (FTase-h)” (International Journal of Molecular Sciences, 2025).
# Legend:
# [1] = molecular target: human farnesyltransferase (FTase) (Homo sapiens, UniProt P49354+P49356); assay: FTase inhibitory assay (fluorescence, Dansyl-GCVLS); type: biochemical; details: inhibition of human FTase at 100 μM of tested compound; mean of two experiments
# In short: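 Partially purified recombinant FTase with Dansyl-GCVLS and farnesyl pyrophosphate in Tris/HCl pH 7.5 (DTT, MgCl2, ZnCl2, octyl-glucoside); fluorescence (ex 340/em 486 nm) read 15 min at 30 °C. IC50 by regression for compounds inhibiting >60% at 100 µM; kinetics varied FPP (Dns-GCVLS 2.5 μM) or peptide (FPP 10 μM).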
# RPMI-8226 (Leukemia) = assay: NCI one dose, RPMI-8226; type: cell-based, human; details: RPMI-8226, 1.00E-5 Molar one dose
# In short: (§1)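 Sulforhodamine B protein staining measured cell growth after cells from the NCI 60-line panel were exposed to compound for 48 h.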
# [2] = system: HOP-62 (Non-Small Cell Lung Cancer); assay: NCI one dose, HOP-62; type: cell-based, human; details: HOP-62, 1.00E-5 Molar one dose
# In short: as §1
# [3] = system: NCI-H460 (Non-Small Cell Lung Cancer); assay: NCI one dose, NCI-H460; type: cell-based, human; details: NCI-H460, 1.00E-5 Molar one dose
# Experimental: (§2) 3.4. Cell Proliferation Assay
# (§3) Selected compounds were tested on a panel of 60 human cancer cell lines at the National Cancer Institute (NCI), Germantown, MD, USA. The cytotoxicity studies were conducted using a 48 h exposure protocol using the sulfo-rhodamine B assay.
# [4] = system: NCI-H522 non-small cell lung cancer cells; assay: NCI cell proliferation, NCI-H522; type: cell-based, human; details: for inhibition at 10 µM: read-out: % Cancer cell growth Inhibition (NCI-H522); for Growth Percent: NCI-H522, 1.00E-5 Molar one dose
# In short: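 An SRB-based cytotoxicity protocol was used, with 48 h treatment of the 60 human tumour lines screened at the National Cancer Institute.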
# HCC-2998 (Colon Cancer) = assay: NCI one dose, HCC-2998; type: cell-based, human; details: HCC-2998, 1.00E-5 Molar one dose
# In short: as §1
# SW-620 (Colon Cancer) = assay: NCI one dose, SW-620; type: cell-based, human; details: SW-620, 1.00E-5 Molar one dose
# In short: as §1
# SF-268 (CNS Cancer) = assay: NCI one dose, SF-268; type: cell-based, human; details: SF-268, 1.00E-5 Molar one dose
# In short: as §1
# SNB-75 (CNS Cancer) = assay: NCI one dose, SNB-75; type: cell-based, human; details: SNB-75, 1.00E-5 Molar one dose
# In short: as §1
# LOX IMVI (Melanoma) = assay: NCI one dose, LOX IMVI; type: cell-based, human; details: 1.00E-5 Molar one dose
# In short: as §1
# MDA-MB-435 (Melanoma) = assay: NCI one dose, MDA-MB-435; type: cell-based, human; details: MDA-MB-435, 1.00E-5 Molar one dose
# In short: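 Selected compounds went through the NCI sixty-line screen; a 48 h treatment preceded sulforhodamine B quantification.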
# SK-MEL-28 (Melanoma) = assay: NCI one dose, SK-MEL-28; type: cell-based, human; details: SK-MEL-28, 1.00E-5 Molar one dose
# In short: as §1
# UACC-257 melanoma cells = assay: NCI one dose, UACC-257; type: cell-based, human; details: UACC-257, 1.00E-5 Molar one dose
# In short: as §1
# OVCAR-3 (Ovarian Cancer) = assay: NCI one dose, OVCAR-3; type: cell-based, human; details: OVCAR-3, 1.00E-5 Molar one dose
# In short: as §1
# [5] = system: NCI/ADR-RES (Ovarian Cancer); assay: NCI one dose, NCI/ADR-RES; type: cell-based, human; details: 1.00E-5 Molar one dose
# In short: as §1
# SK-OV-3 (Ovarian Cancer) = assay: NCI one dose, SK-OV-3; type: cell-based, human; details: SK-OV-3, 1.00E-5 Molar one dose
# In short: as §1
# CAKI-1 (Renal Cancer) = assay: NCI one dose, CAKI-1; type: cell-based, human; details: CAKI-1, 1.00E-5 Molar one dose
# In short: as §1
# SN12C (Renal Cancer) = assay: NCI one dose, SN12C; type: cell-based, human; details: 1.00E-5 Molar one dose
# In short: as §1
# TK-10 (Renal Cancer) = assay: NCI one dose, TK-10; type: cell-based, human; details: TK-10, 1.00E-5 Molar one dose
# In short: as §1
# UO-31 renal cancer cells = assay: NCI one dose, UO-31; type: cell-based, human; details: UO-31, 1.00E-5 Molar one dose
# In short: as §1
# PC-3 (Prostate Cancer) = assay: NCI one dose, PC-3; type: cell-based, human; details: PC-3, 1.00E-5 Molar one dose
# In short: as §1
# DU-145 (Prostate Cancer) = assay: NCI one dose, DU-145; type: cell-based, human; details: DU-145, 1.00E-5 Molar one dose
# In short: as §1
# MCF7 (Breast Cancer) = assay: NCI one dose, MCF7; type: cell-based, human; details: MCF7, 1.00E-5 Molar one dose
# In short: as §1
# BT-549 (Breast Cancer) = assay: NCI one dose, BT-549; type: cell-based, human; details: BT-549, 1.00E-5 Molar one dose
# In short: as §1
# T-47D (Breast Cancer) = assay: NCI one dose, T-47D; type: cell-based, human; details: 1.00E-5 Molar one dose
# Experimental: as §2, §3
# [6] = system: MDA-MB-468 breast cancer cells; assay: NCI one dose, MDA-MB-468; type: cell-based, human; details: MDA-MB-468, 1.00E-5 Molar one dose
# In short: as §1
Structure (SMILES),% FTI [1] [%],Growth Percent (RPMI-8226 (Leukemia)) [%],Growth Percent [2] [%],Growth Percent [3] [%],"inhibition at 10 µM ([4]; Homo sapiens, NCI-H522) [%]",Growth Percent [4] [%],Growth Percent (HCC-2998 (Colon Cancer)) [%],Growth Percent (SW-620 (Colon Cancer)) [%],Growth Percent (SF-268 (CNS Cancer)) [%],Growth Percent (SNB-75 (CNS Cancer)) [%],Growth Percent (LOX IMVI (Melanoma)) [%],Growth Percent (MDA-MB-435 (Melanoma)) [%],Growth Percent (SK-MEL-28 (Melanoma)) [%],Growth Percent (UACC-257 melanoma cells) [%],Growth Percent (OVCAR-3 (Ovarian Cancer)) [%],Growth Percent [5] [%],Growth Percent (SK-OV-3 (Ovarian Cancer)) [%],Growth Percent (CAKI-1 (Renal Cancer)) [%],Growth Percent (SN12C (Renal Cancer)) [%],Growth Percent (TK-10 (Renal Cancer)) [%],also measured
COc1ccc(CNC(=O)[C@@H]2CS[C@H]3c4ccccc4C(=O)N23)cc1OC [4aI],62,99.43,98.51,111.19,36,63.65,105.82,102.54,104.77,95.63,99.42,107.42,110.57,75.20,116.00,99.35,104.05,95.39,100.89,87.34,"GI50 ([4]; Homo sapiens, NCI-H522): 20.8 µM; Growth Percent (UO-31 renal cancer cells): 94.41%; Growth Percent (PC-3 (Prostate Cancer)): 88.12%; Growth Percent (DU-145 (Prostate Cancer)): 107.46%; Growth Percent (MCF7 (Breast Cancer)): 99.04%; Growth Percent (BT-549 (Breast Cancer)): 108.27%; Growth Percent (T-47D (Breast Cancer)): 85.94%; Growth Percent [6]: 102.27%"
C[C@@]12SC[C@@H](C(=O)NCc3ccc(Cl)cc3Cl)N1C(=O)c1ccccc12 [4bH],22,86.31,103.25,104.39,28,71.73,99.28,104.06,99.59,99.75,101.94,102.36,108.92,79.49,101.07,96.56,99.25,86.12,97.63,105.53,Growth Percent (UO-31 renal cancer cells): 86.15%; Growth Percent (PC-3 (Prostate Cancer)): 78.16%; Growth Percent (DU-145 (Prostate Cancer)): 109.42%; Growth Percent (MCF7 (Breast Cancer)): 89.35%; Growth Percent (BT-549 (Breast Cancer)): 107.71%; Growth Percent (T-47D (Breast Cancer)): 79.65%; Growth Percent [6]: 88.80%
COc1ccccc1CNC(=O)[C@@H]1CS[C@H]2c3ccccc3C(=O)N12 [4aG],21,102.98,104.24,110.17,30,69.93,120.86,105.78,102.73,98.49,99.95,110.28,116.98,74.73,109.74,105.58,107.78,94.09,110.50,90.98,Growth Percent (UO-31 renal cancer cells): 94.39%; Growth Percent (PC-3 (Prostate Cancer)): 102.91%; Growth Percent (DU-145 (Prostate Cancer)): 106.12%; Growth Percent (MCF7 (Breast Cancer)): 102.38%; Growth Percent (BT-549 (Breast Cancer)): 110.45%; Growth Percent (T-47D (Breast Cancer)): 98.98%; Growth Percent [6]: 101.62%
C[C@@]12SC[C@@H](C(=O)NCc3ccccc3C(F)(F)F)N1C(=O)c1ccccc12 [4bC],58,87.02,97.48,105.02,19,80.71,105.71,104.67,103.76,96.49,102.39,98.98,111.34,73.01,115.46,101.64,100.95,84.55,94.74,92.04,Growth Percent (UO-31 renal cancer cells): 91.39%; Growth Percent (PC-3 (Prostate Cancer)): 80.00%; Growth Percent (DU-145 (Prostate Cancer)): 102.05%; Growth Percent (MCF7 (Breast Cancer)): 90.83%; Growth Percent (BT-549 (Breast Cancer)): 104.97%; Growth Percent (T-47D (Breast Cancer)): 86.40%; Growth Percent [6]: 101.77%
COc1cccc(CNC(=O)[C@@H]2CS[C@@]3(C)c4ccccc4C(=O)N23)c1 [4bE],56,95.74,98.17,104.83,33,67.45,107.01,104.85,106.18,98.09,101.37,98.34,112.92,81.73,115.54,98.88,101.46,85.65,101.62,95.45,Growth Percent (UO-31 renal cancer cells): 91.68%; Growth Percent (PC-3 (Prostate Cancer)): 96.89%; Growth Percent (DU-145 (Prostate Cancer)): 106.55%; Growth Percent (MCF7 (Breast Cancer)): 89.13%; Growth Percent (BT-549 (Breast Cancer)): 110.64%; Growth Percent (T-47D (Breast Cancer)): 96.67%; Growth Percent [6]: 93.38%
